Key:
[1] = test system: Nilaparvata lugens; test: Nilaparvata lugens test (foliar application), outdoor trial rice, Philippines; format: in vivo
Experimental: Action of the crystalline modification I of the compound of the formula (I) against plant-damaging insects/outdoor trial rice, Philippines
Nilaparvata lugens Test (Foliar Application)
To produce a suitable preparation of active compound, the oil-based suspension concentrate prepared according to Example 2.3 (OD 100 formulation) was diluted with water to the desired concentration. After the desired period of time, the kill in % was determined 100% means that all leafhoppers have been killed; 0% means that none of the leafhoppers have been killed.

[2] = Solid-state properties of the crystalline modifications (stability, moisture uptake, grindability); format: physicochemical

thermodynamic stability of the crystalline modification [2] | grindability ([2]; compared to other crystalline modifications) | Structure (SMILES) | Kill rate in % after 14 days ([1]; Active compound concentration 200 g/ha, foliar application of OD 100 formulation of Example 2.3 diluted with water, rice, outdoor trial, 100% = all leafhoppers killed) | activity against Nilaparvata lugens (in words) ([1]; foliar application, outdoor trial rice) | tendency to absorb atmospheric moisture ([2]; compared to the crystalline modification II) | conversion into another crystalline modification on storage ([2]; prolonged storage)
thermodynamically stable | easier to comminute/grind | CN(Cc1ccc(Cl)nc1)C1=CC(=O)OC1 [crystalline modification I, 4-{[(6-chloropyrid-3-yl)methyl](methyl)amino}furan-2(5H)-one] | 100% | good activity | reduced tendency to absorb atmospheric moisture | does not convert into another crystalline modification
metastable | – | CN(Cc1ccc(Cl)nc1)C1=CC(=O)OC1 [crystalline modification II, 4-{[(6-chloropyrid-3-yl)methyl](methyl)amino}furan-2(5H)-one, reference compound] | – | – | – | –
